Experiment [1] addresses T1, Nucleoprotein (Human coronavirus OC43) (UniProt P33469).
T1 sequence (whole entry): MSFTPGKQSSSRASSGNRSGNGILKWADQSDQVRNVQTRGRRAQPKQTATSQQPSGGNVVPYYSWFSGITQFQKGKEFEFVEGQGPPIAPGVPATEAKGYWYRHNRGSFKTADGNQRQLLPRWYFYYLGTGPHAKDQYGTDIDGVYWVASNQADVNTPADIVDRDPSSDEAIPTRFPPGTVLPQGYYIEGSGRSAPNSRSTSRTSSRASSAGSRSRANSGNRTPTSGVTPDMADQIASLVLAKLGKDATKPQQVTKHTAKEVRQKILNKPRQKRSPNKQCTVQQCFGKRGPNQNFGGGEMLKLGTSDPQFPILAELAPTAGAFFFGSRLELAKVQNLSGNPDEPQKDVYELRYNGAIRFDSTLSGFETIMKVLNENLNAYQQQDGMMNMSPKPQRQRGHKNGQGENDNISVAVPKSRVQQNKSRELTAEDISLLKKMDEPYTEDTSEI
Particulars: 10 uM.
Description: Inhibition of human coronavirus OC43 nucleocapsid protein expressed in Escherichia coli BL21(DE3) assessed as reduction of RNA-binding capacity by measuring resonance unit at 10 uM by surface plasmon resonance analysis relative to control

Experiment [2] has as its system Human coronavirus OC43. Nature of the experiment: Inhibition of Human coronavirus OC43 replication infected in human 293T cells transfected with wild-type HCoV-OC43 N protein assessed as M mRNA level at 10 uM by RT-PCR analysis (reference value: 2.41 no unit). It is filed as functional.
Experiment [3] relates to Human coronavirus OC43. The experiment can be described thus: Inhibition of Human coronavirus OC43 replication infected in human 293T cells assessed as M mRNA level at 10 uM by RT-PCR analysis (reference value: 0.32 no unit). It counts as functional.
Experiment [4] concerns the target T1, Nucleoprotein (Human coronavirus OC43). The experiment can be described thus: Inhibition of human coronavirus OC43 nucleocapsid protein expressed in Escherichia coli BL21(DE3) assessed as reduction of RNA-binding capacity by surface plasmon resonance analysis relative to control. As to conditions: concentration not given here. (In general: SPR reads the build-up and loss of mass on a sensor chip optically.)

Calls of active or inactive are those of the source. No cut-off for these calls is given here.

The results in this text go back to ChEMBL document CHEMBL3232913, “Structural basis for the identification of the N-terminal domain of coronavirus nucleocapsid protein as an antiviral target” (2014).

For the compound `CN(C)CC(=O)Nc1ccc2[nH]c(=O)c3ccccc3c2c1.Cl` [PJ34], the inhibition (usually the change of the read-out against control, counted positive when it falls) in experiment [1] was “Active”. Further, the “fold change (FC)” value in experiment [2] was 0.65; in experiment [3] it was 0.11. Moreover, in experiment [4], the inhibition was over 10%.
Regarding `O=C1C(Cl)=C(NCCN2CCOCC2)C(=O)c2ncccc21`, the “fold change (FC)” value in experiment [2] is 2.46; in experiment [3], 0.22. In experiment [4], the inhibition was over 10%.
